In patent US5747253A, “Combinatorial oligomer immunoabsorbant screening assay for transcription factors and other biomolecule binding” (Isis Pharmaceuticals, Inc., priority 1995, dated 1998):

Key:
gag-pol stem loop = assay: Gel shift analysis of RNA oligonucleotide sets binding to HIV gag-pol stem loop (triple strand); conditions: 100 mM NaCl, 25 mM TRIS acetate pH5, 2 mM MgCl2, 1 mM spermidine
Description: Binding to double stranded DNA or RNA is possible by formation of a three stranded complex with the incoming third strand binding in the major groove of the duplex RNA or DNA. The molecular nature of the interaction between the oligomer and target need not be known in order to practice the technique. Thus, it is possible that novel interactions between oligomers and DNA or RNA will be responsible for binding. One of the limitations in the design of triple strand interactions is the need to have a long stretch of homopurines as a target. The 3' (right) side of the gag-pol stem loop is homopurine except for a pair of cytosines near the bottom of the stem. To determine the best oligonucleotide to bind to the gag-pol stem loop, a group of RNA oligonucleotide sets was designed to bind to the purine-rich strand of the gag-pol stem-loop by Hoogstein base pairing and prepared in accordance with Examples 2 and 6. Binding to the gag-pol stemloop was measured by gel shift analysis as previously described in Example 8 with the following modifications: the radiolabeled gag-pol RNA was incubated with the oligonucleotide in 100 mM NaCl, 25 mM TRIS acetate pH5, 2 mM Mg Cl2, 1 mM spermidine. The gel was a 15% acrylamide with 50 mM NaCl 2 mM MgCl2 added to the running buffer.

HIV-tat protein [1] = assay: Capture assay for HIV-tat binding; conditions: phosphorothioate library pools at 100 nM
Description: As a positive control, the native double stranded NF-kB binding site was incubated at 100 nM with the same amount of extract. Following the incubation each mixture was added to streptavidin coated microtiter plates (Elkay Lab Systems) and incubated 20 minutes. Unbound molecules were washed away with PBS. 10 μl of PBS plus 5% fetal calf serum was added to each well for 20 minutes at room temperature followed by aspiration and addition of 100 μl of 1:500 tat antisera in PBS plus 1% FCS for 2 hours at room temperature. The wells were then washed with PBS and 100 μl of 1:5000 Protein A/G-alkaline phosphatase (Pierce) added in PBS for 2 hours at room temperature. […] Color development was measured 2 hours later by reading absorbance at 405 nm on a Titertek Multiscan ELISA plate reader.
This and all other steps were carried out at room temperature. […] Protein A/G-alkaline phosphatase was bound to the tat antibodies followed by the addition of the PNPP substrate and quantitation of A 405 as detailed in Example 33.
Each pool of the phosphorothioate combinatorial library described in Example 33 was incubated at a concentration of 100 nM with tat protein as described in Example 34. Following incubation of the protein with the library pools, the complexes were captured on streptavidin plates and binding quantitated as in Example 33. […]

HIV-tat protein [2] = assay: Competition assay for HIV-tat binding against ΔTAR-B; conditions: RNA library pools at 1 μM, 10 μM and 100 μM; ΔTAR-B 100 nM
Description: A truncated version (residues 16-45; ΔTAR) of the TAR hairpin previously shown to bind tat was synthesized using 2'-O-methyl oligonucleotides as described in Example 4 and was biotin conjugated on the 3' end (ΔTAR-B) as described in Example 9. A combinatorial library was synthesized using RNA oligonucleotides with the sequence CCA NNX NNNNGCCUGGGAGCNNNNUGG, where X=A (SEQ ID NO:24), G (SEQ ID NO:25), C (SEQ ID NO:26), or U (SEQ ID NO:27) as described in Example 2 and 6.
The pools of the library at 0, 1, 10, or 100 μM were incubated with 100 μl of purified recombinant tat transcription factor (Repligen) at a concentration of 20 pg/μl for 15'. This and all other steps were carried out at room temperature. The competitor, ΔTAR-B, was then added at a concentration of 100 nM. Following a 20' incubation, the mixture was bound to streptavidin-coated microtiter plates as in Example 33. After the non-bound molecules were washed away with PBS, 100 μl of 1:500 tat antisera was added to each well for 2 hours. Protein A/G-alkaline phosphatase was bound to the tat antibodies followed by the addition of the PNPP substrate and quantitation of A 405 as detailed in Example 33.
In the competition mode library pools which bind the transcription factor prevent binding to the natural target (in this case the competitor ΔTAR) also present in the assay. […]

c-rel = assay: Capture assay for c-rel binding (streptavidin plates, Jurkat nuclear extract); conditions: library pools at 1 μM; native binding site at 100 nM
Description: Crude nuclear extracts were prepared as detailed by Franza, et al., Nature 1987, 330, 391, from Jurkat cells stimulated 4 hours with 1 μM PHA and 100 nM PMA to induce the expression of rel. The extract was then preabsorbed with 100 μl streptavidin agarose per ml for 10 minutes. This was followed with the addition of poly dI.dC as a non specific competitor at a concentration of 100 μg/ml of extract.
Phosphorothioate oligonucleotides were synthesized with the sequence […]-B (SEQ ID NO: 22) and […]-B (SEQ ID NO:23), where B=biotin, as described in Examples 3 and 9. The complementary oligonucleotides were then hybridized to create the double stranded NF-kB binding site, which was used as a positive control in the assay. A combinatorial phosphorothioate library was also synthesized with the general sequence TNNNXNNNT-B, where X=A, G, C, or U as described in Examples 3 and 6.
Each pool of the library was incubated in triplicate at a concentration of 1 μM with 100 μl of the extract for 20 minutes at room temperature. As a positive control, the native double stranded NF-kB binding site was incubated at 100 nM with the same amount of extract. Following the incubation each mixture was added to streptavidin coated microtiter plates (Elkay Lab Systems) and incubated 20 minutes. […] Color development was measured 2 hours later by reading absorbance at 405 nm on a Titertek Multiscan ELISA plate reader.

| Substance | Kd (gag-pol stem loop) | further results |
| --- | --- | --- |
| C2: RNA oligonucleotide (CCCUUCCCCUC; RNA, backbone not given here) [Set C2] | 1 µM |  |
| A2: RNA oligonucleotide (CCCUUCCCAUC; RNA, backbone not given here) [Set A2] | 10 µM |  |
| pool fixed at G: RNA library pool CCA NNX NNNNGCCUGGGAGCNNNNUGG, X=G (CCANNGNNNNGCCUGGGAGCNNNNUGG; RNA, backbone and the base at N not given here) |  | amount of tat bound, in words (HIV-tat protein [1]): clearly binds more tat than the others; inhibition of tat binding to ΔTAR, in words (HIV-tat protein [2]): least effect |
| D2: RNA oligonucleotide (CCCUUCCCUUC; RNA, backbone not given here) [Set D2] | 10 µM |  |
| B2: RNA oligonucleotide (CCCUUCCCGUC; RNA, backbone not given here) [Set B2] | 10 µM |  |
| native NF-kB binding site: double stranded biotinylated phosphorothioate NF-kB binding site, SEQ ID NO: 22 and 23, positive control (chain 1 GGGGACTTTCCGCTGGGACTTTCTAG; chain 2 CTGGAAAGTCCCAGCGGAAGGTCCCC; all phosphorothioate, sugars by position and methylation of C not given here; biotinylated) |  | amount of c-rel bound, in words (c-rel): binds the greatest amount of rel |
